Source: PMC3246389 (Nature biotechnology, 2011)

Tests used:
[1] = target: GABAB receptor (Homo sapiens, UniProt Q9UBS5); type: binding, rat and human; conditions: control ligand tested at the highest concentration
[2] = read-out: Kd, literature value; SPR on immobilized GM1; cited from earlier work

Sequence of GABAB receptor (Q9UBS5 1-844 isoform Q9UBS5-2): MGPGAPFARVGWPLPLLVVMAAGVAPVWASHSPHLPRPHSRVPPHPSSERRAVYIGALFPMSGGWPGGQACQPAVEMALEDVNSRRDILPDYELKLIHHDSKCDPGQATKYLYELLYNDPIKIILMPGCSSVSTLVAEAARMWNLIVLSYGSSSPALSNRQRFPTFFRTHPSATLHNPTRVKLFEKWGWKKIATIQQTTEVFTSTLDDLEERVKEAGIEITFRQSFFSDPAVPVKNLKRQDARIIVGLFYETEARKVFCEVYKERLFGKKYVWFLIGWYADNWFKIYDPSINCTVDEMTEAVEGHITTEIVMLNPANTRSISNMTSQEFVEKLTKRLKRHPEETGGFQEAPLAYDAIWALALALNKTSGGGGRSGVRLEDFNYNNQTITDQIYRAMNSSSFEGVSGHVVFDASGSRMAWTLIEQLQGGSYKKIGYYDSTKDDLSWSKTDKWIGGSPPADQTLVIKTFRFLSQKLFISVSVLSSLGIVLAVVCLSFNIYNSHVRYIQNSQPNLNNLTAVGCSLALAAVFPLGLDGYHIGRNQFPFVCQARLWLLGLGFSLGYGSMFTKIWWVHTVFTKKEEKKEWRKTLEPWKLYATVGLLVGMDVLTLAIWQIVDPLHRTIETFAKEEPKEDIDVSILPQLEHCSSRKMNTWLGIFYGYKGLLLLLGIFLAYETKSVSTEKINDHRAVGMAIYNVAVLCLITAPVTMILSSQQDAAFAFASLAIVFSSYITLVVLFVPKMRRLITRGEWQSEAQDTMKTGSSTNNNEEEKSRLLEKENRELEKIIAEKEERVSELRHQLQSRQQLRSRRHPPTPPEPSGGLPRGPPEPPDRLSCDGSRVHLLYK
Sequence of GABAB receptor (O88871 41-940 partner): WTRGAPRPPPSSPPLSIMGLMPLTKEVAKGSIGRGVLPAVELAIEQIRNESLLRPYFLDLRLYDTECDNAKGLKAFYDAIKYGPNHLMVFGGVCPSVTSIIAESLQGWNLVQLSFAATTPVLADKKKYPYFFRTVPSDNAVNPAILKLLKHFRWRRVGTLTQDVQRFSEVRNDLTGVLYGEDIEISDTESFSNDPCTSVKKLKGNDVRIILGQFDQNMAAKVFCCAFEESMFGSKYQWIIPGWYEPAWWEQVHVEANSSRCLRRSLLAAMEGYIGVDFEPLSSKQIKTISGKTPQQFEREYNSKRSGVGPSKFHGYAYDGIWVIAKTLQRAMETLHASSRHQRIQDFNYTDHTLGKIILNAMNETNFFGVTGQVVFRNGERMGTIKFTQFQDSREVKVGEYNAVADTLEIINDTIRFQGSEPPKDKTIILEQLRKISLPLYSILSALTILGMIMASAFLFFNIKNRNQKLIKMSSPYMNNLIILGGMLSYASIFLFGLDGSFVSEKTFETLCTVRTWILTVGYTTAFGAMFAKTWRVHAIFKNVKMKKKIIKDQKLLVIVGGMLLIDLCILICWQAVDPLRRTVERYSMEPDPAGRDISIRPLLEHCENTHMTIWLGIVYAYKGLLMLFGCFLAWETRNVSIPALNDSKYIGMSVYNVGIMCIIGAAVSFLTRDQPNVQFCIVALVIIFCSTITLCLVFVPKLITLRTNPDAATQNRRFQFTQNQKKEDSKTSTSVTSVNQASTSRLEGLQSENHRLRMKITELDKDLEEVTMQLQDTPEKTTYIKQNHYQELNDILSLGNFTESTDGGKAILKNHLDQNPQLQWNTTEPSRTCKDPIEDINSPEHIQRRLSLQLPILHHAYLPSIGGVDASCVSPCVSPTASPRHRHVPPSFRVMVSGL

Compound	BSI binding curve (negative control) [1]	Kd [2] [pM]
C[C@H](N)C(=O)O [L-alanine]	negative control	–
CC(C)CCC[C@@H](C)[C@H]1CC[C@H]2[C@@H]3CC=C4C[C@@H](O)CC[C@]4(C)[C@H]3CC[C@]12C [cholesterol]	negative control	–
Cholera toxin B subunit: cholera toxin B subunit, soluble protein that binds GM1; purchased from Sigma	–	4
